PMC6130710 (Pharmaceutical Biology, 2017)
Converted amounts (≈) assume the structure as drawn. Like-named read-outs stand apart in the source and are kept apart here.

Columns and labels:
[1] = DPPH radical scavenging activity
Method: The antioxidant activity of the extract was evaluated through the free radical scavenging effect on 2,2′-diphenyl-1-picrylhydrazyl (DPPH) (Sigma) radical as previously reported (Yen & Hsieh [1997]) with slight modifications. 100 μL of 0.10 mM DPPH ethanolic solution was added to 20 μL of the sample with various concentrations. The mixture was thoroughly mixed and kept in the dark for 30 min. The absorbance was measured at 517 nm using a Sunrise microplate reader spectrophotometer.

[2] = target: T1, α-Glucosidase (EC 3.2.1.20) from Saccharomyces cerevisiae (Baker's yeast) (Saccharomyces cerevisiae, UniProt P53341); assay: biochemical
T1 construct: purchased Sigma-Aldrich (St. Louis, MO)
T1 sequence (P53341 whole entry): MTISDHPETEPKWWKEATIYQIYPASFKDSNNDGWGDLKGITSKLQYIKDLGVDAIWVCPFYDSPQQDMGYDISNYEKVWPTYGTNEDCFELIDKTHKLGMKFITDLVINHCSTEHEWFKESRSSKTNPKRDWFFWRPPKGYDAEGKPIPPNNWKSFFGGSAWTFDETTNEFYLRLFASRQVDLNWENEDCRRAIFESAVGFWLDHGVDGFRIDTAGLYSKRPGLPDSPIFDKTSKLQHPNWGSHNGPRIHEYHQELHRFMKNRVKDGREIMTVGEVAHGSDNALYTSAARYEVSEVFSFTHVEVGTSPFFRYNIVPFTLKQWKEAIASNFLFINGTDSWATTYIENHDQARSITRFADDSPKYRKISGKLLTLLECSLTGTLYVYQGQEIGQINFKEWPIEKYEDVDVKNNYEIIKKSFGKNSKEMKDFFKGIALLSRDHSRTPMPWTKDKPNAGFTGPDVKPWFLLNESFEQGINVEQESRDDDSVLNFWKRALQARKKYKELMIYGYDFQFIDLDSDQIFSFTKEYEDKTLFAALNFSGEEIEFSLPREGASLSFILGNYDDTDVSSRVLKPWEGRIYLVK
Method: (§1) 1 D and 2 D NMR spectra were recorded on a Bruker 400 AVANCE spectrometer, and the chemical shifts were reported in parts per million (ppm) using tetramethylsilane (TMS) as the internal standard. Melting points were determined on a Fisher-Johns Melting Point apparatus. Adsorbents such as silica gel 60 (Merck) were used for column and radial (chromatotron model 7924 T, Harrison Research) chromatographies. Merck silica gel 60F254 plates were used for TLC. HRESIMS spectra were obtained using a Bruker MICROTOF model mass spectrometer. UV-visible absorption spectra were recorded using a UV-2550 (SHIMADZU) UV-Vis spectrometer (Shimadzu, Kyoto, Japan). α-Glucosidase (EC 3.2.1.20) from Saccharomyces cerevisiae and 4-nitrophenyl-α-D-glucopyranoside (p-NPG) were obtained from Sigma-Aldrich (St. Louis, MO). […] Rat intestinal acetone powder was supplied by Sigma Aldrich.
The evaluation of the inhibitory activity of all compounds against yeast and rat intestinal (maltase and sucrase) α-glucosidases was applied from a previous procedure (Damsud et al. [2013]). The inhibitory effect against yeast α-glucosidase was determined using the protocol previously described. Briefly, 10 μL of sample was mixed with α-glucosidase (0.1 U/mL) in 1 mM phosphate buffer (pH 6.9) and incubated at 37 °C for 10 min. The reaction mixture was added with 1 mM p-nitrophenyl-α-D-glucopyranoside (PNPG, 50 μL) followed by additional 20 min incubation. p-Nitrophenoxide liberated from the reaction was quantified by a microplate reader (UV 405 nm) after the addition of 1 M Na2CO3 (100 μL). The percent inhibition was deduced using the following equation. (A0-A1)/A0×100 where A1 and A0 are absorbances with and without the sample, respectively.

[3] = target: rat intestinal α-glucosidase (maltase); assay: rat intestinal α-glucosidase (maltase) inhibition assay; assay type: biochemical; conditions: rat intestine; for IC50: compounds, Table 2
Method: 1 D and 2 D NMR spectra were recorded on a Bruker 400 AVANCE spectrometer, and the chemical shifts were reported in parts per million (ppm) using tetramethylsilane (TMS) as the internal standard. Melting points were determined on a Fisher-Johns Melting Point apparatus. Adsorbents such as silica gel 60 (Merck) were used for column and radial (chromatotron model 7924 T, Harrison Research) chromatographies. Merck silica gel 60F254 plates were used for TLC. HRESIMS spectra were obtained using a Bruker MICROTOF model mass spectrometer. UV-visible absorption spectra were recorded using a UV-2550 (SHIMADZU) UV-Vis spectrometer (Shimadzu, Kyoto, Japan). α-Glucosidase (EC 3.2.1.20) from Saccharomyces cerevisiae and 4-nitrophenyl-α-D-glucopyranoside (p-NPG) were obtained from Sigma-Aldrich (St. Louis, MO). Acarbose was obtained from Bayer Vitol Leverkusen, Germany. Rat intestinal acetone powder was supplied by Sigma Aldrich.
(§2) Moreover, previous procedure (Damsud et al. [2013]) was also applied to determine inhibitory activity of isolated compounds against intestinal α-glucosidases (maltase and sucrase). Briefly, 10 μL of the test sample and substrate solution (maltose: 10 mM, 20 μL; sucrose: 100 mM, 20 μL, respectively) in 0.1 M phosphate buffer (pH 6.9) were incubated at 37 °C (20 min for maltase and 60 min for sucrase). The mixture was discontinued in boiling water for 10 min, and glucose released from the reaction was converted to quinoneimine using a commercial Glu Kit (Human, Germany). The absorbance of final product was determined at 503 nm, and percent inhibition was calculated using the aforementioned equation.

[4] = target: T2, rat intestinal α-glucosidase (sucrase) (Rattus norvegicus, UniProt P23739); assay: rat intestinal α-glucosidase (sucrase) inhibition assay; assay type: biochemical; conditions: rat intestine; compounds, Table 2
T2 construct: tissue Sigma Aldrich; host or cells: rat intestinal acetone powder
T2 sequence (P23739 1014-1841 limits assumed): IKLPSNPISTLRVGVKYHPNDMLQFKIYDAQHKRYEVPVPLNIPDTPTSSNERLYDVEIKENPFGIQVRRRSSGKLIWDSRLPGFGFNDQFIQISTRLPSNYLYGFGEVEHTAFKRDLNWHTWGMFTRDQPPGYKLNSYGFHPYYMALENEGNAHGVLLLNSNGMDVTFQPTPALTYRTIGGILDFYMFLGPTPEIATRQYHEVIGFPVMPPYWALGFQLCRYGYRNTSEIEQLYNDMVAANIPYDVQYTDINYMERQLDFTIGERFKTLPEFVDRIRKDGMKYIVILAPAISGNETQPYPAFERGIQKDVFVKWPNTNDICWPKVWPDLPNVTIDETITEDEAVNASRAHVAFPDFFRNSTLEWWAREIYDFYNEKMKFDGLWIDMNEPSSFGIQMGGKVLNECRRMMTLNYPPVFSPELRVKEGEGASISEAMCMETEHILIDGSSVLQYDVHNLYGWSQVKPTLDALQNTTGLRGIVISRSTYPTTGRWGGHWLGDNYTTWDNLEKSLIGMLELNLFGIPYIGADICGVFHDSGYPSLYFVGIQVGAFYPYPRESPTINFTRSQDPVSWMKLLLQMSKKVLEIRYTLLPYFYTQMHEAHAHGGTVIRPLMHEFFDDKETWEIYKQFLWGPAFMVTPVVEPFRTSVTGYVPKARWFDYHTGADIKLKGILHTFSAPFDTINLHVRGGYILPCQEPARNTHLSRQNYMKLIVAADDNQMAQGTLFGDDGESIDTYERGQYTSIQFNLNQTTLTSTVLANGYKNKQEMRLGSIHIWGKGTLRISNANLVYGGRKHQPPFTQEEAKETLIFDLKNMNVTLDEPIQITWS
T2 sequence (P23739 1-1013 partner limits assumed): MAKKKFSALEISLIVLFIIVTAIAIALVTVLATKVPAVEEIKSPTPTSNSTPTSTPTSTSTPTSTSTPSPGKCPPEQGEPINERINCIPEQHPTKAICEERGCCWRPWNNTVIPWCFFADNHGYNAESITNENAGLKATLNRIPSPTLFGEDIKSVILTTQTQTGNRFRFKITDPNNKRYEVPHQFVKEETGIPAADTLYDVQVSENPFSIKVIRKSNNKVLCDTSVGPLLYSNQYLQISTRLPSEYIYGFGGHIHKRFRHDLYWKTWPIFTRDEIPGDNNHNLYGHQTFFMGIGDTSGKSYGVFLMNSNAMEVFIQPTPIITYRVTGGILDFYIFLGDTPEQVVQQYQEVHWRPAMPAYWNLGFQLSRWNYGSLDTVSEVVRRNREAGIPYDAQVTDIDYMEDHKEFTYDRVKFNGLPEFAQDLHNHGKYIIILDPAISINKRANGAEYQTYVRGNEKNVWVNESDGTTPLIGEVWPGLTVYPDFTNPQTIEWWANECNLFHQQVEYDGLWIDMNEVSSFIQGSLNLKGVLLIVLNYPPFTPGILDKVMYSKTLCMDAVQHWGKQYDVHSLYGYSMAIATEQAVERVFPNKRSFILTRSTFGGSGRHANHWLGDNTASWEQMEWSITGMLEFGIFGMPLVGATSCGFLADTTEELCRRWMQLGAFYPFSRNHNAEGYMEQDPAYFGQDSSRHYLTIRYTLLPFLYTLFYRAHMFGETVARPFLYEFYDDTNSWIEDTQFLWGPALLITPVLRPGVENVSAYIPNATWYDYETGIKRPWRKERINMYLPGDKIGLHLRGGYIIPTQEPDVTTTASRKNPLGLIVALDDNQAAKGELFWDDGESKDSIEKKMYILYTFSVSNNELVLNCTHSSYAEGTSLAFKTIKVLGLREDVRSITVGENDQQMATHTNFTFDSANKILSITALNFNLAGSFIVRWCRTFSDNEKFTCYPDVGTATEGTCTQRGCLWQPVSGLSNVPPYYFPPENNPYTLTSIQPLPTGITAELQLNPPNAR
Method: as §1, §2

[5] = target: T3, yeast α-glucosidase (Saccharomyces cerevisiae, UniProt P53341); assay: enzyme kinetic study (Lineweaver–Burk plots) against yeast α-glucosidase; assay type: biochemical
T3 construct: purchased Sigma-Aldrich (St. Louis, MO)
T3 sequence (P53341 whole entry): as the sequence (P53341 whole entry) above
Text: Figure 2S. Lineweaver-Burk plots for inhibitory activity of compound 2 against yeast α- […]
Figure 3S. Secondary plot of slope vs [I] for deduction of Ki of compound 2 against yeast α- […]
Figure 4S. Secondary plot of intercept vs [I] for deduction of K′i of compound 2 against yeast […]
Figure 5S. The hydrophobic analysis of compounds 1 (A) and 2 (B). The H-bond interactions were shown as green dotted lines and the hydrophobic interactions with surrounding amino acids are shown as arcs with spokes radiating towards the inhibitor. These schematic diagrams were generated using LigPlot+ software (Laskowski & Swindells, 2011).
Ahmad FBH, Moghaddam MG, Basri M, Abdul Rahman MB. 2010. Anticancer activity of 3-O-acylated betulinic acid derivatives obtained by enzymatic synthesis. Biosci […]

[6] = compounds, Table 2, read-out: IC50 Baker's yeast α-glucosidase
[7] = IC50 Baker's yeast α-glucosidase, compounds, Table 2

Structure (SMILES)	IC50 ([1]; compounds, Table 2) [µM]	IC50 [2, 6] [mM]	IC50 [3] [µM]	IC50 [4] [µM]	also measured
COc1cc([C@H]2c3c(cc(OC)c(O)c3OC)C[C@@H](CO)[C@@H]2CO[C@@H]2O[C@H](CO)[C@@H](O)[C@H](O)[C@H]2O)cc(OC)c1O [Compound 4, (+)-lyoniresinol-3α-O-β-D-glucopyranoside]	3795 ± 0.42	> 0.6	373 ± 1.05	1214 ± 2.01	
C=C(C)[C@@H]1CC[C@]2(C(=O)O)CC[C@]3(C)[C@H](CC[C@@H]4[C@@]5(C)CC[C@H](OC(=O)CCCCC)C(C)(C)[C@@H]5CC[C@]43C)[C@@H]12 [Compound 2e]	> 10000	0.0721 ± 0.00154	> 3000	> 3000	
C=C(C)[C@@H]1CC[C@]2(C(=O)N(C(=O)NC3CCCCC3)C3CCCCC3)CC[C@]3(C)[C@H](CC[C@@H]4[C@@]5(C)CC[C@H](OC(=O)CCCCC)C(C)(C)[C@@H]5CC[C@]43C)[C@@H]12 [Compound 2l]	> 10000	> 0.6	> 3000	> 3000	
C=C(C)[C@@H]1CC[C@]2(C(=O)O)CC[C@]3(C)[C@H](CC[C@@H]4[C@@]5(C)CC[C@H](OC(C)=O)C(C)(C)[C@@H]5CC[C@]43C)[C@@H]12 [Compound 2a]	> 10000	0.0281 ± 0.00076	> 3000	> 3000	
C=C(C)[C@@H]1CC[C@]2(C(=O)N(C(=O)NC3CCCCC3)C3CCCCC3)CC[C@]3(C)[C@H](CC[C@@H]4[C@@]5(C)CC[C@H](OC(=O)CC)C(C)(C)[C@@H]5CC[C@]43C)[C@@H]12 [Compound 2i]	> 10000	0.368 ± 0.00164	> 3000	> 3000	
C=C(C)[C@@H]1CC[C@]2(C(=O)N(C(=O)NC3CCCCC3)C3CCCCC3)CC[C@]3(C)[C@H](CC[C@@H]4[C@@]5(C)CC[C@H](OC(=O)CCC)C(C)(C)[C@@H]5CC[C@]43C)[C@@H]12 [Compound 2j]	> 10000	> 0.6	> 3000	> 3000	
C=C(C)[C@@H]1CC[C@]2(C(=O)O)CC[C@]3(C)[C@H](CC[C@@H]4[C@@]5(C)CC[C@H](OC(=O)CCCC)C(C)(C)[C@@H]5CC[C@]43C)[C@@H]12 [Compound 2d]	> 10000	0.269 ± 0.00322	> 3000	> 3000	
C=C(C)[C@@H]1CC[C@]2(C(=O)O)CC[C@]3(C)[C@H](CC[C@@H]4[C@@]5(C)CC[C@H](OC(=O)c6ccccc6)C(C)(C)[C@@H]5CC[C@]43C)[C@@H]12 [Compound 2f]	> 10000	0.0731 ± 0.00096	> 3000	> 3000	
C[C@@H]1O[C@@H](O[C@H]2[C@H](Oc3c(-c4ccc(O)c(O)c4)oc4cc(O)cc(O)c4c3=O)O[C@@H](C)[C@H](O)[C@H]2O)[C@H](O)[C@H](O)[C@H]1O [Compound 6, horridin]	42.8 ± 0.83		> 3000	> 3000	IC50 [2, 7]: > 0.6 mM
O=C1O[C@H]([C@@H](O)CO)C(O)=C1O [Vitamin C, reference compound]	158 ± 1.9				IC50 DPPH ([1]; fractions A-G, Table 1): 28 ± 1560 µg/mL (≈ 159 µM)
C[C@H]1O[C@H](O[C@H]2[C@H](O)[C@@H](O)[C@@H](O[C@H]3[C@H](O)[C@@H](O)C(O)O[C@@H]3CO)O[C@@H]2CO)[C@H](O)[C@@H](O)[C@@H]1N[C@H]1C=C(CO)[C@@H](O)[C@H](O)[C@H]1O (stereo partly drawn) [Acarbose, reference compound]			7.9 ± 0.94		IC50 Maltase ([3]; fractions A-G, Table 1): 5.1 ± 940 µg/mL (≈ 7.9 µM)
C=C(C)[C@@H]1CC[C@]2(C(=O)O)CC[C@]3(C)[C@H](CC[C@@H]4[C@@]5(C)CC[C@H](OC(=O)CC)C(C)(C)[C@@H]5CC[C@]43C)[C@@H]12 [Compound 2b]	> 10000	0.0433 ± 0.00019	> 3000	> 3000	
Cc1cc(C(C)(C)C)c(O)c(C(C)(C)C)c1 [BHT, reference compound]	328 ± 0.56				IC50 DPPH ([1]; fractions A-G, Table 1): 72 ± 350 µg/mL (≈ 327 µM)
C=C(C)[C@@H]1CC[C@]2(C(=O)N(C(=O)NC3CCCCC3)C3CCCCC3)CC[C@]3(C)[C@H](CC[C@@H]4[C@@]5(C)CC[C@H](O)C(C)(C)[C@@H]5CC[C@]43C)[C@@H]12 [Compound 2g]	> 10000	0.23 ± 0.00011	> 3000	> 3000	melting point: 193 to 194 °C
C=C(C)[C@@H]1CC[C@]2(C)CC[C@]3(C)[C@H](CC[C@@H]4[C@@]5(C)CC[C@H](O)C(C)(C)[C@@H]5CC[C@]43C)[C@@H]12 [Compound 1, lupeol]	> 10000		> 3000	> 3000	IC50 DPPH ([1]; compounds, Table 2): no activity; IC50 [2, 7]: 0.0372 ± 0.00022 mM; IC50 ([2]; experimental IC50 yeast α-glucosidase, restated in mM in docking section): 0.037 mM
C=C(C)[C@@H]1CC[C@]2(C(=O)O)CC[C@]3(C)[C@H](CC[C@@H]4[C@@]5(C)CC[C@H](OC(=O)CCC)C(C)(C)[C@@H]5CC[C@]43C)[C@@H]12 [Compound 2c]	> 10000	0.158 ± 0.00122	> 3000	> 3000	
C=C(C)[C@@H]1CC[C@]2(C(=O)O)CC[C@]3(C)[C@H](CC[C@@H]4[C@@]5(C)CC[C@H](O)C(C)(C)[C@@H]5CC[C@]43C)[C@@H]12 [Compound 2, betunilic acid]	> 10000	0.0163 ± 0.00203	> 3000	> 3000	IC50 DPPH ([1]; compounds, Table 2): no activity; IC50 ([2]; restated in mM in docking section, read-out: experimental IC50 yeast α-glucosidase): 0.016 mM; mode of inhibition ([5]; Lineweaver–Burk plots, 0.063 and 1.3 mM of inhibitor): mixed mode inhibitor; K'i (uncompetitive component, from intercept plot) ([5]; secondary plot of intercept vs [I], Figure 4S): 0.019 mM
C=C(C)[C@@H]1CC[C@]2(C(=O)N(C(=O)NC3CCCCC3)C3CCCCC3)CC[C@]3(C)[C@H](CC[C@@H]4[C@@]5(C)CC[C@H](OC(=O)CCCC)C(C)(C)[C@@H]5CC[C@]43C)[C@@H]12 [Compound 2k]	> 10000	> 0.6	> 3000	> 3000	
C[C@@H]1O[C@@H](O[C@H]2[C@H](Oc3c(-c4ccc(O)cc4)oc4cc(O)cc(O)c4c3=O)O[C@@H](C)[C@H](O)[C@H]2O)[C@H](O)[C@H](O)[C@H]1O [Compound 5, kaempferol-3-O-α-L-rhamnopyranosyl-(1→2)-α-L-rhamnopyrano side]	6019 ± 1.36		> 3000	> 3000	IC50 [2, 7]: > 0.6 mM
C=C(C)[C@@H]1CC[C@]2(C(=O)N(C(=O)NC3CCCCC3)C3CCCCC3)CC[C@]3(C)[C@H](CC[C@@H]4[C@@]5(C)CC[C@H](OC(C)=O)C(C)(C)[C@@H]5CC[C@]43C)[C@@H]12 [Compound 2h]	> 10000	0.281 ± 0.00089	> 3000	> 3000	
